The values below come from US11492335B2, “Aryl or heteroaryl triazolone derivatives or salts thereof, or pharmaceutical compositions comprising the same” (YUHAN CORPORATION, priority 2018, dated 2022).

Structures can show the parent of a compound that is named as a salt. Where two headings read alike, the source gives them in different places. Where only a bound is given, the exact number is not on record here.

What all share (assay type): biochemical
Assay [1] addresses T1, recombinant human VAP-1 (Homo sapiens, UniProt Q16853).
T1 construct: purchased R&D systems
T1 sequence (Q16853 1-763): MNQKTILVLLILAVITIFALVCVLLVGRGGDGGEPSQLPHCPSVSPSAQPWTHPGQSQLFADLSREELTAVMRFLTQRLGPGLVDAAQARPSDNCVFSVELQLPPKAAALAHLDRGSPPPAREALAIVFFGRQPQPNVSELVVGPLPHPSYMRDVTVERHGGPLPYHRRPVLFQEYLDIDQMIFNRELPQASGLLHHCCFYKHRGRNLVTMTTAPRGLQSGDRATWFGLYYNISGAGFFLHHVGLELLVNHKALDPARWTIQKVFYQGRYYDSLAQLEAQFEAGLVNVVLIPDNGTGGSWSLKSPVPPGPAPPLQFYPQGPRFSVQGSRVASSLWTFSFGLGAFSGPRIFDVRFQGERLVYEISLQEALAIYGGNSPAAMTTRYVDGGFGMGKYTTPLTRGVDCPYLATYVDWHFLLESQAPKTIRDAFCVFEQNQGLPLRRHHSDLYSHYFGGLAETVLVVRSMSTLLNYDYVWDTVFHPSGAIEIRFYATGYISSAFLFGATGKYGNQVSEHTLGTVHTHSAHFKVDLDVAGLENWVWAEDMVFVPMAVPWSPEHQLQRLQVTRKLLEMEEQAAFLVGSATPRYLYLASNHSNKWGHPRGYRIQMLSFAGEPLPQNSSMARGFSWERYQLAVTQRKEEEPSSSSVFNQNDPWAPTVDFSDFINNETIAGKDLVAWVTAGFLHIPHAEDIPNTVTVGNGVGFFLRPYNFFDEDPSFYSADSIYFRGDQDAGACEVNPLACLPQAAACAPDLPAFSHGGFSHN
In words: Activity on recombinant human VAP-1, Amplex Red HRP-coupled hydrogen peroxide assay, benzylamine substrate. As to conditions: recombinant human VAP-1, benzylamine substrate, read-out: Inhibitory Activity (IC50, nM) human VAP-1. Summed up: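 8-point 1:3 dilutions, final DMSO <1%; 30 min enzyme preincubation, 37 °C, pH 7.4 phosphate. Start: 1 mM benzylamine + 200 uM Amplex Red + 1 U/mL HRP. Read ex544/em590 over 1-2 h; % rate decrease vs DMSO control, 4-parameter logistic IC50.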

Assay [2] has as its target T2, recombinant human MAO-A (monoamine oxidase-A) (Homo sapiens, UniProt P21397).
T2 construct: purchased Sigma-Aldrich
T2 sequence (P21397 1-527): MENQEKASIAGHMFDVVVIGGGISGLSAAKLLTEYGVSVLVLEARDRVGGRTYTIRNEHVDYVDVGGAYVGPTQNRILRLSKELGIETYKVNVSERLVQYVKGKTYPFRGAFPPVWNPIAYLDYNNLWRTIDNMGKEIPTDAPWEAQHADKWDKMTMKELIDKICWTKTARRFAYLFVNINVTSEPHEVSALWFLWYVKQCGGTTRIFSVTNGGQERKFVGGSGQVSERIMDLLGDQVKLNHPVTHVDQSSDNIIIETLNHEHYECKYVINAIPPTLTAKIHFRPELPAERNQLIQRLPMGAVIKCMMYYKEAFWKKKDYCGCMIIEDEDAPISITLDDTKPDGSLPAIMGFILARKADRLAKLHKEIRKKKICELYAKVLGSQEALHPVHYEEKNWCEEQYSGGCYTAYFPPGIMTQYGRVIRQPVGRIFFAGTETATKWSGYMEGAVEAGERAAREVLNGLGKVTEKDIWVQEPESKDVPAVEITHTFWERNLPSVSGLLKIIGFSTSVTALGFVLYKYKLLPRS
Briefly: Activity on recombinant human MAO-A, Amplex Red method, 0.5 mM tyramine substrate. As to conditions: read-out: Inhibitory Activity (IC50, nM) MAO-A. The method, boiled down:
(§1)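 HRP-coupled Amplex Red H2O2 assay, 50 mM sodium phosphate pH 7.4; compounds (8-point 1:3 series, final DMSO <1%) preincubated with enzyme 30 min at 37° C, then 200 uM Amplex Red, 1 U/mL HRP and substrate (MAO-A 0.5 mM tyramine; MAO-B 1 mM benzylamine) added. Resorufin fluorescence (ex 544/em 590 nm) read over 1-2 h; IC50 from four-parameter logistic fit.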

Assay [3] concerns the target T3, recombinant human DAO (diamine oxidase) (Homo sapiens, UniProt P19801).
T3 construct: purchased R&D systems
T3 sequence (P19801 20-751): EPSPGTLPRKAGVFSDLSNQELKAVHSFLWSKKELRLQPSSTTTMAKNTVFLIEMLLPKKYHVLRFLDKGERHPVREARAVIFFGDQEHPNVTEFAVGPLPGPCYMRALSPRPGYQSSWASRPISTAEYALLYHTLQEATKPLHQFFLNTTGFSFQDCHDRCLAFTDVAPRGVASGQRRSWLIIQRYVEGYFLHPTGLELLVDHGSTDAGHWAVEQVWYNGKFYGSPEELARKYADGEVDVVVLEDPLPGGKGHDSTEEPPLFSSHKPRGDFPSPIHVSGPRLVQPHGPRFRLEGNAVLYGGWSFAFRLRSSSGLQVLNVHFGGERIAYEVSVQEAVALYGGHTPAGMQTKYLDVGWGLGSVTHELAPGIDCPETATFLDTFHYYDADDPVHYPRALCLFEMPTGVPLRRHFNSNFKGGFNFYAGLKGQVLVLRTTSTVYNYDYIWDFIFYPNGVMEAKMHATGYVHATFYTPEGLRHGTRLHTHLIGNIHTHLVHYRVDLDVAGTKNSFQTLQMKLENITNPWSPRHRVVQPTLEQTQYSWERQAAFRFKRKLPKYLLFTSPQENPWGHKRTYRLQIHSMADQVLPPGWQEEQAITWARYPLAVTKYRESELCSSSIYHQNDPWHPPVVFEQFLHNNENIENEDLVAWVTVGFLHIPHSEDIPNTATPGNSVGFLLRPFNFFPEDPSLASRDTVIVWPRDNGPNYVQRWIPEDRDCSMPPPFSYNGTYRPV
In words: Activity on recombinant human DAO, Amplex Red method, 1 mM putrescine substrate. The settings on record: recombinant human DAO, read-out: Inhibitory Activity (IC50, nM) DAO. The method, boiled down: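 Inhibition of recombinant human DAO (diamine oxidase, R&D systems) was assessed with the Amplex Red Hydrogen Peroxide Assay Kit. Hydrogen peroxide produced from 1 mM putrescine was detected through an HRP-coupled reaction that converts Amplex Red into fluorescent resorufin, read at 544 nm excitation and 590 nm emission. IC50 values came from four-parameter logistic fits in GraphPad Prism.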

Assay [4] deals with T4, recombinant human MAO-B (monoamine oxidase-B) (Homo sapiens, UniProt P27338).
T4 construct: purchased Sigma-Aldrich
T4 sequence (P27338 1-520): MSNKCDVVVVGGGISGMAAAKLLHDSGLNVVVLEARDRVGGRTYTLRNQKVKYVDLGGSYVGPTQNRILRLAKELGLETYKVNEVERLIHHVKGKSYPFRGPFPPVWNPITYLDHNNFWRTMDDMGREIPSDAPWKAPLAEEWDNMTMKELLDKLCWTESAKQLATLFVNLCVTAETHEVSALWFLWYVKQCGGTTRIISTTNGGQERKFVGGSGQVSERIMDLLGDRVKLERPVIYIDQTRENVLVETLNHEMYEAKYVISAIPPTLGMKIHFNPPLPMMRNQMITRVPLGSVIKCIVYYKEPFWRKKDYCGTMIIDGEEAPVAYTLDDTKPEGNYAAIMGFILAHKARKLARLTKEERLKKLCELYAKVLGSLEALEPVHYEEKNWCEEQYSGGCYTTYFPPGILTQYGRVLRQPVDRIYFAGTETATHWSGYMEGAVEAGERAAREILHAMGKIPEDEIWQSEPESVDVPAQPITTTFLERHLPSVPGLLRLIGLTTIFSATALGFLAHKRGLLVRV
Briefly: Activity on recombinant human MAO-B, Amplex Red method, 1 mM benzylamine substrate. As to conditions: read-out: Inhibitory Activity (IC50, nM) MAO-B. The method, boiled down:
as §1

Setting [5] is: 1 mM putrescine, * = between 10 and 100 nM, ** = between 300 and 1000 nM.

As for `CC(C)n1cc(-c2cccc(-n3cnn(C/C(=C/F)CN)c3=O)c2)ccc1=O` [Example 90, 5-(3-{1-[(2E)-2-(aminomethyl)-3-fluoroprop-2-en-1-yl]-5-oxo-1,5-dihydro-4H-1,2,4-triazol-4-yl}phenyl)-1-(propan-2-yl)pyridin-2(1H)-one hydrochloride], the IC50 (usually the concentration at which inhibition is half-maximal) in assay [1] (30 min preincubation at 37° C.) is 1.4 nM; in assay [2] (0.5 mM tyramine), above 100000 nM; in assay [3] (setting [5]) it was 19 nM; in assay [4] (1 mM benzylamine), above 10000 nM.
Regarding `NC/C(=C\F)Cn1ncn(-c2cccc(C#Cc3cnc4c(c3)NC(=O)CO4)n2)c1=O` [Example 258, 7-[2-[6-[1-[(E)-2-(aminomethyl)-3-fluoro-allyl]-5-oxo-1,2,4-triazol-4-yl]-2-pyridyl]ethynyl]-1H-pyrido[2,3-b][1,4]oxazin-2-one], the IC50 in assay [1] was 0.2 nM; in assay [2] (0.5 mM tyramine substrate), above 100000 nM; in assay [3] (1 mM putrescine substrate) it was 1.3 nM; in assay [4] (1 mM benzylamine substrate), 59000 nM.
The like results for `NC/C(=C\F)Cn1ncn(-c2cccc(-c3ccc(-c4ccon4)cc3)n2)c1=O` [Example 176, 2-[(2E)-2-(aminomethyl)-3-fluoroprop-2-en-1-yl]-4-{6-[4-(1,2-oxazol-3-yl)phenyl]pyridin-2-yl}-2,4-dihydro-3H-1,2,4-triazol-3-one] were, in that order, 0.83 nM, 7900 nM, below 30 nM and 3320 nM.
Take `NC/C(=C/F)Cn1ncn(-c2cccc(-c3ccc4c(c3)OCO4)c2)c1=O` [Example 92, 2-[(2Z)-2-(aminomethyl)-3-fluoroprop-2-en-1-yl]-4-[3-(1,3-benzodioxol-5-yl)phenyl]-2,4-dihydro-3H-1,2,4-triazol-3-one hydrochloride]: the IC50 in assay [1] (30 min preincubation at 37° C.) was 1.1 nM; in assay [2] (0.5 mM tyramine), 9.69 nM; in assay [3] (setting [5]) it was 41 nM; in assay [4] (1 mM benzylamine) it was 1350 nM.
Take `NC/C(=C\F)Cn1ncn(-c2ccnc(-c3ccc(C(=O)N4CCOCC4)cc3)c2)c1=O` [Example 208, 2-[(2E)-2-(aminomethyl)-3-fluoroprop-2-en-1-yl]-4-{2-[4-(morpholin-4-ylcarbonyl)phenyl]pyridin-4-yl}-2,4-dihydro-3H-1,2,4-triazol-3-one hydrochloride]: the IC50 was 0.89 nM in assay [1], above 100000 nM in assay [2] (0.5 mM tyramine substrate), below 10 nM in assay [3] (1 mM putrescine substrate) and above 10000 nM in assay [4] (1 mM benzylamine substrate).
Consider `Cc1cc(-c2cccc(-c3nnc[nH]3)c2)cnc1-n1cnn(C/C(=C/F)CN)c1=O` [Example 137, 2-[(2E)-2-(aminomethyl)-3-fluoroprop-2-en-1-yl]-4-{3-methyl-5-[3-(4H-1,2,4-triazol-3-yl)phenyl]pyridin-2-yl}-2,4-dihydro-3H-1,2,4-triazol-3-one], for which the IC50 in assay [1] (30 min preincubation at 37° C.) came to 0.5 nM; in assay [2] (0.5 mM tyramine) it was 34000 nM; in assay [3] (setting [5]) it was 120 nM; in assay [4] (1 mM benzylamine), 3790 nM.
As for `COc1cc(-c2cccc(-n3cnn(C/C(=C/F)CN)c3=O)c2)ccn1` [Example 79, 2-[(2E)-2-(aminomethyl)-3-fluoroprop-2-en-1-yl]-4-[3-(2-methoxypyridin-4-yl)phenyl]-2,4-dihydro-3H-1,2,4-triazol-3-one hydrochloride], the IC50 is 0.47 nM in assay [1] (30 min preincubation at 37° C.), above 100000 nM in assay [2] (0.5 mM tyramine), 2.2 nM in assay [3] (setting [5]) and 7900 nM in assay [4] (1 mM benzylamine).
In the case of `COc1cc(-n2cnn(C/C(=C\F)CN)c2=O)ccc1Br` [Example 17, 2-[(2Z)-2-(aminomethyl)-3-fluoroprop-2-en-1-yl]-4-(4-bromo-3-methoxyphenyl)-2,4-dihydro-3H-1,2,4-triazol-3-one], the IC50 in assay [1] (30 min preincubation at 37° C.) was 2.7 nM; in assay [2] (0.5 mM tyramine) it was above 100000 nM; in assay [3] (setting [5]) it was 31 nM; in assay [4] (1 mM benzylamine), 406 nM.
The like results for `CC(=O)Nc1ccc(-c2cccc(-n3cnn(C/C(=C/F)CN)c3=O)c2)cc1` [Example 57, N-(3′-{1-[(2E)-2-(aminomethyl)-3-fluoroprop-2-en-1-yl]-5-oxo-1,5-dihydro-4H-1,2,4-triazol-4-yl}biphenyl-4-yl)acetamide hydrochloride] were, in that order, 0.38 nM, 1250 nM, below 100 nM and above 10000 nM.
Turning to `CN(C)c1ccc(C#Cc2cccc(-n3cnn(C/C(=C/F)CN)c3=O)n2)cn1` [Example 248, 2-[(E)-2-(aminomethyl)-3-fluoro-allyl]-4-[6-[2-[6-(dimethylamino)-3-pyridyl]ethynyl]-2-pyridyl]-1,2,4-triazol-3-one], the IC50 is 0.5 nM in assay [1], above 100000 nM in assay [2] (0.5 mM tyramine substrate), 36 nM in assay [3] (1 mM putrescine substrate) and above 10000 nM in assay [4] (1 mM benzylamine substrate).
